For assay [1], the system named is RAW264.7. Kind of assay: Inhibition of LPS/IFN-gamma-induced NO production in mouse RAW264.7 cells at 30 uM after 18 hrs. It counts as functional, cell-based.
The test system of assay [2] is RAW264.7. Nature of the assay: Inhibition of LPS/IFN-gamma-induced NO production in mouse RAW264.7 cells at 10 uM after 18 hrs. The format is functional. Conditions: RAW264.7, 18 h.
Assay [3] concerns RAW264.7. Nature of the assay: Inhibition of LPS/IFN-gamma-induced NO production in mouse RAW264.7 cells at 50 uM after 18 hrs. The format is functional. Particulars: RAW264.7, 18 h.

Each structure is given as a SMILES string. Active and inactive are the calls of the source. The rule behind the calls is not given here.

For `COc1nc2c3c(ccc2c(OC)c1CC(=O)C(C)C)OCO3`, in the assay on RAW264.7 [1], the outcome was inactive.

For the compound `COc1nc2c3c(ccc2c(OC)c1C[C@H]1OC1(C)C)OCO3`, the result in the assay with RAW264.7 [1] was inactive.

`COc1c2ccoc2nc2c3c(ccc12)OCO3`: the outcome in the assay on RAW264.7 [1] was inactive.

For the compound `COc1c(CC(=O)C(C)C)c(=O)n(C)c2c(OC)cccc12` [ORIXALONE A], the inhibition – broadly, the percentage by which the read-out fell short of the control – at 10 µM in the assay with RAW264.7 [2] amounted to 47.3%. For the same compound, the inhibition at 50 µM in the assay with RAW264.7 [3] was found to be 54.8%.
